Measured values reported in patent US4349378A, “Compounds useful as pesticides” (FBC Limited, priority 1978, dated 1982).

Tests used:
[1] = test system: Tomato; assay: (II) surface spray, growth regulatory or herbicidal effects; format: in vivo, Lycopersicon esculentum; details: 21 days, 100=complete suppression
Description: (§1) (II) An aqueous suspension together with 1000 ppm of the wetting agent Lissapol NX. The surfaces of an additional set of pans with seeds already sown were then sprayed with 2.8 or 1.4 kg/ha in 450 liters/hectare, and the pans kept in the controlled environment room for 21 days.
(§2) The plants were then visually assessed for any growth regulatory or herbicidal effects. All differences from an untreated control were scored on a scale from 0-100, where 0 signifies no effect and 100 signifies complete suppression.
(§3) The results are shown in the following table where I stands for soil incorporation and II for surface spray.

[2] = test system: Wheat; assay: as above; format: in vivo, Triticum aestivum; details: 21 days, 100=complete suppression
Description: as §1, §2, §3

[3] = test system: Barnyard Grass; assay: as above; format: in vivo, Echinochloa crus-galli; details: II surface spray 1.4 kg/ha (line 3.25 ppm), 21 days, 100=complete suppression
Description: as §1, §2, §3

[4] = test system: Rice; assay: as above; format: in vivo, Oryza sativa; details: 21 days, 100=complete suppression
Description: as §1, §2, §3

[5] = test system: Barley; assay: as above; format: in vivo, Hordeum vulgare; details: 21 days, 100=complete suppression
Description: as §1, §2, §3

[6] = test system: Carrot; assay: as above; format: in vivo, Daucus carota; details: 21 days, 100=complete suppression
Description: as §1, §2, §3

[7] = test system: Cotton; assay: as above; format: in vivo, Gossypium sp.; details: 21 days, 100=complete suppression
Description: as §1, §2, §3

[8] = test system: Xanthomonas malvacearum; assay: bacteriostatic test in dextrose nutrient broth; format: cell-based; details: 1,000 and 200 ppm weight/volume; 8 days at 25° C.
Procedure: A 1% suspension/solution of the product of Example 157 in polyethylene glycol (Carbowax 400) was added to a dextrose nutrient broth to give a concentration of 1,000 parts per million (ppm) weight/volume of medium. Dilution in test tubes was then carried out to give a concentration of 200 ppm weight/volume of medium. To 8 ml quantities of broth was added 0.2 ml of a dense broth culture of the bacterium causing black arm of cotton, Xanthomonas malvacearum. After 8 days incubation at 25° C., all the broth specimens were examined for signs of bacterial growth.

[9] = test system: Fathen; assay: (I) soil incorporation, growth regulatory or herbicidal effects; format: in vivo, Chenopodium album; details: I soil incorporation 6.5 ppm, 21 days, 100=complete suppression
Description: (§4) (I) an attaclay/sand dust and incorporated in John Innes I potting compost at a rate equivalent to 6.5 and 3.25 parts per million weight/volume of active ingredient to soil and placed in anodised aluminium pans, 19 cm long×9.5 cm wide×5.0 cm high. This is approximately equivalent to a surface application of 2.8 and 1.4 kg active ingredient per hectare cultivated to a depth of 5 cm. Seeds of the species listed below were sown in the treated soil, one species per pan, watered and placed in a controlled environment room (22° C.; 65-85% relative humidity and 14 hours artificial illumination at 17000 lux) for 21 days.
as §2, §3

[10] = test system: Chickweed; assay: as above; format: in vivo, Stellaria media; details: I soil incorporation 6.5 ppm, 21 days, 100=complete suppression
Description: as §4, §2, §3

[11] = test system: acetylcholinesterase; assay: standard test indicative of insecticidal activity, inhibition of acetylcholinesterase; format: biochemical; details: 100 micromolar
[12] = II surface spray 1.4 kg/ha (line 3.25 ppm)
[13] = II surface spray 2.8 kg/ha (line 6.5 ppm)

Q: Which results are given for CCS(=O)(=O)N(CC#N)c1ccc(Cl)c(Cl)c1 [Example 137]?
A: growth regulatory or herbicidal effect score [1, 12]: 0; growth regulatory or herbicidal effect score [1, 13]: 0; growth regulatory or herbicidal effect score [2, 12]: 0; growth regulatory or herbicidal effect score [2, 13]: 0; growth regulatory or herbicidal effect score [3]: 90; growth regulatory or herbicidal effect score [4, 12]: 0; growth regulatory or herbicidal effect score [4, 13]: 0; growth regulatory or herbicidal effect score [5, 12]: 0; growth regulatory or herbicidal effect score [5, 13]: 0; growth regulatory or herbicidal effect score [6, 12]: 0; growth regulatory or herbicidal effect score [6, 13]: 0; growth regulatory or herbicidal effect score [7, 12]: 0; growth regulatory or herbicidal effect score [7, 13]: 0

Q: Cc1ccc(N(CC(N)=S)S(C)(=O)=O)cc1Cl [Example 150] was tested. Which “growth regulatory or herbicidal effect score” value [1, 12] did it give?
A: 0

Q: What about the “growth regulatory or herbicidal effect score” value [1, 13] of the same compound?
A: 0

Q: And the “growth regulatory or herbicidal effect score” value [2, 12]?
A: 0

Q: And the “growth regulatory or herbicidal effect score” value [2, 13]?
A: 0

Q: And the “growth regulatory or herbicidal effect score” value [4, 12]?
A: 0

Q: And the “growth regulatory or herbicidal effect score” value [4, 13]?
A: 0

Q: And the “growth regulatory or herbicidal effect score” value [5, 12]?
A: 0

Q: What about the “growth regulatory or herbicidal effect score” value [5, 13] of the same compound?
A: 0

Q: What about the “growth regulatory or herbicidal effect score” value [7, 12] of the same compound?
A: 0

Q: And the “growth regulatory or herbicidal effect score” value [7, 13]?
A: 0

Q: Which “growth regulatory or herbicidal effect score” value [1, 12] does the source give for CS(=O)(=O)N(CC(N)=S)c1ccc(Cl)c(Cl)c1 [Example 85, N-(thiocarbamoylmethyl)-3,4-dichloromethanesulphonanilide] here?
A: 0

Q: And the “growth regulatory or herbicidal effect score” value [1, 13]?
A: 0

Q: What about the “growth regulatory or herbicidal effect score” value [2, 12] of the same compound?
A: 0

Q: And the “growth regulatory or herbicidal effect score” value [2, 13]?
A: 0

Q: What about the “growth regulatory or herbicidal effect score” value [3] of the same compound?
A: 90

Q: And the “growth regulatory or herbicidal effect score” value [4, 12]?
A: 0

Q: And the “growth regulatory or herbicidal effect score” value [4, 13]?
A: 0

Q: And the “growth regulatory or herbicidal effect score” value [5, 12]?
A: 0

Q: What about the “growth regulatory or herbicidal effect score” value [5, 13] of the same compound?
A: 0

Q: And the “growth regulatory or herbicidal effect score” value [6, 12]?
A: 0

Q: And the “growth regulatory or herbicidal effect score” value [6, 13]?
A: 0

Q: What about the “growth regulatory or herbicidal effect score” value [7, 12] of the same compound?
A: 0

Q: What about the “growth regulatory or herbicidal effect score” value [7, 13] of the same compound?
A: 0

Q: Which bacterial growth [8] does the source give for CS(=O)(=O)N(CC(N)=S)c1cccc(Cl)c1Cl [Example 157] here?
A: No growth

Q: Which “growth regulatory or herbicidal effect score” value [9] does the source give for CCOC(=O)C(CC)N(c1c(C)cccc1C)S(C)(=O)=O (centres unmarked) [Example 95] here?
A: 100

Q: What about the “growth regulatory or herbicidal effect score” value [10] of the same compound?
A: 90

Q: Which results are given for Cc1ccc(N(CC#N)S(C)(=O)=O)cc1Cl [Example 131]?
A: growth regulatory or herbicidal effect score [1, 12]: 0; growth regulatory or herbicidal effect score [1, 13]: 0; growth regulatory or herbicidal effect score [2, 12]: 0; growth regulatory or herbicidal effect score [2, 13]: 0; growth regulatory or herbicidal effect score [4, 12]: 0; growth regulatory or herbicidal effect score [4, 13]: 0; growth regulatory or herbicidal effect score [5, 12]: 0; growth regulatory or herbicidal effect score [5, 13]: 0; growth regulatory or herbicidal effect score [6, 12]: 0; growth regulatory or herbicidal effect score [6, 13]: 0; growth regulatory or herbicidal effect score [7, 12]: 0; growth regulatory or herbicidal effect score [7, 13]: 0

Q: How did the “growth regulatory or herbicidal effect score” value [1, 12] turn out when CCS(=O)(=O)N(CC(N)=S)c1ccc(Cl)c(Cl)c1 [Example 156] was run?
A: 0

Q: What about the “growth regulatory or herbicidal effect score” value [1, 13] of the same compound?
A: 0

Q: What about the “growth regulatory or herbicidal effect score” value [2, 12] of the same compound?
A: 0

Q: And the “growth regulatory or herbicidal effect score” value [2, 13]?
A: 0

Q: What about the “growth regulatory or herbicidal effect score” value [4, 12] of the same compound?
A: 0

Q: What about the “growth regulatory or herbicidal effect score” value [4, 13] of the same compound?
A: 0

Q: And the “growth regulatory or herbicidal effect score” value [5, 12]?
A: 0

Q: What about the “growth regulatory or herbicidal effect score” value [5, 13] of the same compound?
A: 0

Q: And the “growth regulatory or herbicidal effect score” value [7, 12]?
A: 0

Q: And the “growth regulatory or herbicidal effect score” value [7, 13]?
A: 0

Q: How did the inhibition of acetylcholinesterase [11] turn out when CNC(=O)ON=C(C)CN(c1c(C)cccc1C)S(C)(=O)=O [Example 248, N-[2-(methylcarbamoyloxyimino)propyl]-2',6'-dimethylmethanesulphonanilide] was run?
A: 30%
